Measured values as given in the supplement of paper PMC7108870.

Legend:
HEK293sieSTAT3(Y640F) [1] = test: drug sensitivity score (DSS), cytotoxicity CellTox Green (DSS (dimensionless)); higher = more cytotoxic; extreme values may be limits of the assay; conditions: 72 h; STAT3 variant: Y640F (constitutively active)
Outline: (§1)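 A drug sensitivity score, based on the area of the dose-response curve, was calculated in Breeze after normalising values to negative and positive control wells. It came from HEK293 cells carrying a STAT3-dependent luciferase reporter and overexpressing wild-type or mutant STAT3, plated at 20 μl of 100,000 cells/ml onto compounds acoustically pre-plated at 5 concentrations in 10-fold dilutions in 384-well plates. Following 72 hours at 37°C and 5% CO2, CellTox Green fluorescence (485/520 nm) and then CellTiter-Glo luminescence were read on a PHERAstar FS.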

HEK293sieSTAT3(wt) [2] = test: as above; conditions: 72 h; STAT3 variant: wild type
Outline: as §1

HEK293sieSTAT3(Y640F) [3] = test: drug sensitivity score (DSS), viability CellTiter-Glo (DSS (dimensionless)); higher = more growth inhibition; extreme values may be limits of the assay; conditions: 72 h; STAT3 variant: Y640F (constitutively active)
Outline: as §1

HEK293sieSTAT3(wt) [4] = test: as above; conditions: 72 h; STAT3 variant: wild type
Outline: as §1

Row | Compound | drug sensitivity score (HEK293sieSTAT3(Y640F) [1]) | drug sensitivity score (HEK293sieSTAT3(wt) [2]) | drug sensitivity score (HEK293sieSTAT3(Y640F) [3]) | drug sensitivity score (HEK293sieSTAT3(wt) [4])
1 | S=P(N1CC1)(N1CC1)N1CC1 [Thio-TEPA] (top concentration tested 50000 nM) | 0 | 0 | 0.14 | 0.48
2 | Nc1nc2[nH]cnc2c(=S)[nH]1 [Thioguanine] (top concentration tested 10000 nM) | 0 | 1.43 | 9.91 | 9.24
3 | O=c1sn(-c2cccc3ccccc23)c(=O)n1Cc1ccccc1 [Tideglusib] (top concentration tested 3000 nM) | 0 | 0 | 2.47 | 0.7
4 | Cn1cncc1[C@@](N)(c1ccc(Cl)cc1)c1ccc2c(c1)c(-c1cccc(Cl)c1)cc(=O)n2C [Tipifarnib] (top concentration tested 10000 nM) | 1.51 | 6.86 | 12.3 | 14.8
5 | O=C1NC(=O)[C@@H](c2cn3c4c(cccc24)CCC3)[C@@H]1c1c[nH]c2ccccc12 [Tivantinib] (top concentration tested 1000 nM) | 0 | 0.63 | 2.71 | 2.4
6 | COc1cc2nccc(Oc3ccc(NC(=O)Nc4cc(C)on4)c(Cl)c3)c2cc1OC [Tivozanib] (top concentration tested 10000 nM) | 0 | 1.14 | 4.07 | 4.13
7 | C[C@@H]1CCN(C(=O)CC#N)C[C@@H]1N(C)c1ncnc2[nH]ccc12 [Tofacitinib] (top concentration tested 5000 nM) | 0 | 0 | 0.07 | 0
8 | CC[C@@]1(O)C(=O)OCc2c1cc1n(c2=O)Cc2cc3c(CN(C)C)c(O)ccc3nc2-1 [Topotecan] (top concentration tested 10000 nM) | 8.8 | 13 | 28.1 | 27
9 | CN(C)CCOc1ccc(/C(=C(/CCCl)c2ccccc2)c2ccccc2)cc1 [Toremifene] (top concentration tested 10000 nM) | 2.32 | 6.99 | 2.66 | 5.41
10 | CC(C)C[C@@H](C(=O)N[C@H](C(=O)OC1CCCC1)c1ccccc1)[C@H](O)C(=O)NO [Tosedostat] (top concentration tested 10000 nM) | 1.4 | 8.66 | 3.46 | 6.78
11 | Cc1cc(Nc2cc(N3CCN(C)CC3)nc(Sc3ccc(NC(=O)C4CC4)cc3)n2)n[nH]1 [Tozasertib] (top concentration tested 10000 nM) | 0 | 0.22 | 10.3 | 12.1
12 | CC(=O)Nc1cccc(-n2c(=O)n(C3CC3)c(=O)c3c(Nc4ccc(I)cc4F)n(C)c(=O)c(C)c32)c1 [Trametinib] (top concentration tested 250 nM) | 1.69 | 0 | 0 | 0
13 | CC1=C(/C=C/C(C)=C/C=C/C(C)=C/C(=O)O)C(C)(C)CCC1 [Tretinoin] (top concentration tested 10000 nM) | 0 | 0 | 0 | 0
14 | NC(=S)N/N=C/c1ncccc1N [Triapine] (top concentration tested 10000 nM) | 1.5 | 0.84 | 14.7 | 9.19
15 | O=C(CCCCCCC(=O)Nc1ccc([C@H]2O[C@@H](CSc3nc(-c4ccccc4)c(-c4ccccc4)o3)C[C@@H](c3ccc(CO)cc3)O2)cc1)NO [Tubacin] (top concentration tested 10000 nM) | 0.48 | 2.57 | 4.63 | 5.53
16 | CN1CCc2c(c3ccccc3n2Cc2ccc(C(=O)NO)cc2)C1 [Tubastatin A] (top concentration tested 10000 nM) | 5.37 | 7.38 | 8.41 | 8.98
17 | CN[C@@H]1C[C@H]2O[C@@](C)([C@@H]1OC)n1c3ccccc3c3c4c(c5c6ccccc6n2c5c31)C(=O)N[C@H]4O [UCN-01] (top concentration tested 10000 nM) | 3.93 | 9.92 | 28.3 | 29.5
18 | COC(=O)c1ccc2c(c1)[nH]c1ncnc(NCCCN3CCCCC3)c12 [UM729] (top concentration tested 10000 nM) | 0.81 | 4.84 | 8.45 | 6.2

Row | Compound | drug sensitivity score (HEK293sieSTAT3(Y640F) [1]) | drug sensitivity score (HEK293sieSTAT3(wt) [2]) | drug sensitivity score (HEK293sieSTAT3(Y640F) [3]) | drug sensitivity score (HEK293sieSTAT3(wt) [4])
19 | O=C(O)CSc1cc(NS(=O)(=O)c2ccc(Br)cc2)c2ccccc2c1O [UMI-77] (top concentration tested 100000 nM) | 5.23 | 5.12 | 10 | 13.1
20 | COc1cc2c(NC3CCN(C(C)C)CC3)nc(C3CCCCC3)nc2cc1OCCCN1CCCC1 [UNC0638] (top concentration tested 10000 nM) | 6.64 | 7.19 | 5.62 | 7.26
21 | COc1cc2c(NC3CCN(C(C)C)CC3)nc(N3CCC(F)(F)CC3)nc2cc1OCCCN1CCCC1 [UNC0642] (top concentration tested 10000 nM) | 7.41 | 7.38 | 9.29 | 7.97
22 | O=C(c1ccc(C(=O)N2CCC(N3CCCC3)CC2)c(Nc2ccccc2)c1)N1CCC(N2CCCC2)CC1 [UNC1215] (top concentration tested 30000 nM) | 0 | 0 | 0.33 | 0.89
23 | CCCCNc1ncc(C(=O)NCc2ccc(-n3ccnc3)cc2)c(NC2CCC(O)CC2)n1 (centres undefined) [UNC2881] (top concentration tested 2500 nM) | 0 | 3.59 | 5.94 | 4.52
24 | NC(=O)c1cccc(-c2cccc(OC(=O)NC3CCCCC3)c2)c1 [URB597] (top concentration tested 1000 nM) | 0 | 0 | 0.03 | 0.37
25 | CC(C)Nc1cc(-c2c[nH]c(C(=O)N[C@H](CO)c3cccc(Cl)c3)c2)c(Cl)cn1 [Ulixertinib] (top concentration tested 10000 nM) | 0 | 0 | 4.62 | 3.95
26 | Cn1ncc(Cl)c1-c1cc(C(=O)N[C@H](CN)Cc2ccc(F)c(F)c2)oc1Cl [Uprosertib] (top concentration tested 10000 nM) | 0 | 0 | 12.7 | 15.3
27 | Oc1ncc(N(CCCl)CCCl)c(O)n1 [Uramustine] (top concentration tested 10000 nM) | 0 | 0 | 0.79 | 0.26
28 | CS(=O)(=O)c1ccc(-c2cnc(N)c(C(=O)Nc3ccccc3)n2)cc1 [VE-821] (top concentration tested 10000 nM) | 0 | 0 | 2.27 | 2.94
29 | O=C(O)CC1CC(c2ccccc2)=NO1 (centres undefined) [VGX-1027] (top concentration tested 10000 nM) | 0 | 0 | 3.98 | 1.07
30 | CNC(=O)c1ccccc1Nc1cc(Nc2ccc(N3CCOCC3)cc2OC)ncc1C(F)(F)F [VS-4718] (top concentration tested 10000 nM) | 0 | 0.44 | 8.98 | 7.27
31 | O=c1ncn2nc(Sc3ccc(F)cc3F)ccc2c1-c1c(Cl)cccc1Cl [VX 745] (top concentration tested 10000 nM) | 0 | 0 | 4.64 | 2.43
32 | CCCC(CCC)C(=O)O [Valproic acid] (top concentration tested 1000000 nM) | 0 | 0 | 3.24 | 3.15
33 | CCCCC(=O)OCC(=O)[C@]1(O)Cc2c(O)c3c(c(O)c2[C@@H](O[C@H]2C[C@H](NC(=O)C(F)(F)F)[C@H](O)[C@H](C)O2)C1)C(=O)c1c(OC)cccc1C3=O [Valrubicin] (top concentration tested 5000 nM) | 0 | 0.89 | 21.9 | 22.8
34 | COc1cc2/c(=N/c3ccc(Br)cc3F)nc[nH]c2cc1OCC1CCN(C)CC1 [Vandetanib] (top concentration tested 1000 nM) | 0 | 0 | 2.31 | 4.73
35 | CCc1c(C(=O)C(N)=O)c2c(OCC(=O)O)cccc2n1Cc1ccccc1 [Varespladib] (top concentration tested 10000 nM) | 0 | 0 | 3.29 | 0
36 | C[C@@H]1COC(Nc2ccc3ncnc(Nc4ccc(OCc5nccs5)c(Cl)c4)c3c2)=N1 [Varlitinib] (top concentration tested 10000 nM) | 0 | 0 | 0.4 | 0
